These results are taken from PMC3367954, “The Influence of pH on the Specific Adhesion of P Piliated Escherichia coli” (PLoS ONE, 2012).

This assay concerns the target T1, PapG adhesin (isolated P pili) (Escherichia coli, UniProt P13720).
T1 construct: gene papGI; native PapG at the tip of isolated P pili (rod of PapA), sheared from E. coli HB101/pPAP5, ammonium sulfate precipitated; PapG not purified separately
Description: surface plasmon resonance (Biacore X100), isolated P pili over immobilised galabiose-BSA. The settings on record: galabiose as BSA conjugate (about 30 per BSA) on CM3 chip, BSA reference subtracted; citrate-phosphate buffer pH 3.5-8.0, 25 °C; multivalent. In kind it is binding. Background: In SPR one partner is held on a chip, and binding of the other changes the refractive index at the surface.

T1 sequence (P13720 22-335): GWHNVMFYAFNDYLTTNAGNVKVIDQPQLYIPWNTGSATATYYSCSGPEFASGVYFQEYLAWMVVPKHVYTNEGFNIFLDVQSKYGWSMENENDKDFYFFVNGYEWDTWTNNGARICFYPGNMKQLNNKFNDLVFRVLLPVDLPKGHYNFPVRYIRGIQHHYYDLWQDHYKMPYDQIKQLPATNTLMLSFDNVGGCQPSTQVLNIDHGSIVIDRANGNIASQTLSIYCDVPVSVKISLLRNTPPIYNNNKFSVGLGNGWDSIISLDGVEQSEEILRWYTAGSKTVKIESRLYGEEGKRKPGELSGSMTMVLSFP

With `OC[C@H]1O[C@H](O[C@@H]2[C@H](O)[C@@H](O)C(O)O[C@@H]2CO)[C@H](O)[C@@H](O)[C@H]1O` (stereo partly drawn) [galabiose, α-D-Gal-(1–4)-β-D-Gal], the “surface plasmon resonance (Biacore X100), isolated P pili over immobilised galab” value is “the binding stability of both isolated pili and bacteria to galabiose-coated surfaces was high”.
